# Assays:
# [1] = test system: human primary fibroblasts; experiment: Combined treatment of stearic acid and nintedanib in human primary fibroblasts; format: cell-based
# Protocol: The primary fibroblasts derived from the patients with idiopathic pulmonary fibrosis used in the following experiment were cultured for 7 to 10 days while cutting the lung tissue of the patient into 1×1 mm^2 slices, and then periodically exchanging a cell culture solution (Eagle's minimal essential medium; EMEM) supplemented with 100 unit/ml penicillin, 100 μg/ml streptomycin, and 10% fetal bovine serum (FBS) under conditions of 5% CO2 and 37° C., and cells of passage 2 to 5 were used for the experiment. To verify the anti-fibrotic effect by the combined treatment of stearic acid and nintedanib, which is another therapeutic agent for idiopathic pulmonary fibrosis, human primary fibroblasts were respectively or simultaneously treated with 5 ng/ml TGF-β, 40 μM stearic acid, and 1.5 or 2 μM nintedanib for 24 hours, and then the expression levels of collagen type 1 (COL-1) and α-SMA, which are markers of fibrosis, were measured, respectively.
# [2] = test system: p-Smad2/3 and Smad7 in MRC-5 cells; experiment: p-Smad2/3 and Smad7 expression in fibroblasts; format: cell-based, human; details: 5 mM NAC pre-treatment 1 h, TGF-β1 1 h
# Protocol: The present inventors pre-treated a human pulmonary fibroblast cell line MRC-5 with 40 μM stearic acid for 16 hours, treated the MRC-5 cells with TGF-β1 for 1 hour, and then examined the expression levels of p-Smad2/3 and Smad7 in order to elucidate the anti-fibrotic mechanism of stearic acid in human pulmonary fibroblasts (FIGS. 12A and 12B). Further, to investigate the effect of stearic acid on the production of reactive oxygen species (ROS), MRC-5 cells were pre-treated with 40 μM stearic acid for 16 hours, and cells treated with TGF-β1 for 1 hour were stained with DCF-DA and analyzed by FACS (FIG. 12C). Furthermore, MRC-5 cells were pre-treated with 5 mM N-acetylcysteine (NAC), which is an antioxidant, for 1 hour and treated with TGF-β1 for 1 hour, and then the expression of p-Smad2/3 was examined (FIG. 12D).
# [3] = test system: human pulmonary epithelial cell line Beas-2B; experiment: Fibronectin (EMT marker) expression under combined treatment in epithelial cells; format: cell-based; details: TGF-β 5 ng/ml; pirfenidone 800 μM, stearic acid 40 μM
# Protocol: FIG. 15 illustrates, as the results of confirming the anti-fibrotic effect according to the combined treatment with stearic acid and pirfenidone in a human pulmonary epithelial cell line BEAS-2B, the results of treating the cells with TGF-β (5 ng/ml), stearic acid (40 μM), and/or pirfenidone (800 μM), and then measuring the expression of fibronectin with a marker of EMT, which is one of the pulmonary fibrosis indices, and quantitatively analyzing the inhibitory efficiency thereof (TGF: TGF-β single treatment group, TGF+PIR: TGF-β and pirfenidone treatment group, TGF+Combi: TGF-β and pirfenidone+stearic acid combined treatment group).
# In addition to the results of Example 3-1-1, the present inventors tried to analyze the degree of epithelial to mesenchymal transition (EMT), which is one of the indices for pulmonary fibrosis, during the combined treatment with stearic acid and pirfenidone by treating a human pulmonary epithelial cell line Beas-2B with 800 μM, and for this purpose, the expression level of fibronectin, which is one of the EMT markers, was measured.
# [4] = test system: human primary fibroblasts; experiment: Combined treatment of stearic acid and pirfenidone in human primary fibroblasts (western blotting); format: cell-based; details: TGF-β single treatment group set to 100%; corrected with actin
# Protocol: The primary fibroblasts derived from the patients with idiopathic pulmonary fibrosis used in the following experiment were cultured for 7 to 10 days while cutting the lung tissue of the patient into 1×1 mm^2 slices, and then periodically exchanging a cell culture solution (Eagle's minimal essential medium; EMEM) supplemented with 100 unit/ml penicillin, 100 μg/ml streptomycin, and 10% fetal bovine serum (FBS) under conditions of 5% CO2 and 37° C., and cells of passage 2 to 5 were used for the experiment.
# To verify the anti-fibrotic effect by the combined treatment of stearic acid and pirfenidone, which is a therapeutic agent for idiopathic pulmonary fibrosis, the human primary fibroblasts isolated by the above-described method were respectively or simultaneously treated with 5 ng/ml TGF-β, 40 μM stearic acid, and 400 or 800 μM pirfenidone for 24 hours, and then the expression levels of collagen type 1 (COL-1) and α-SMA, which are markers of fibrosis, were measured by western blotting, and the inhibitory rate was quantitatively analyzed by correcting the amount of each protein with the amount of actin, which is an intracellular control protein.
# [5] = test system: pulmonary fibrosis induced by bleomycin; experiment: Combined stearic acid and pirfenidone in bleomycin pulmonary fibrosis animal model; format: in vivo, mice (C57BL/6J); details: 3 mg/kg stearic acid, 300 mg/kg pirfenidone oral once every 2 days for 2 weeks
# Protocol: In addition to the results of the above examples, the present inventors sought to confirm the anti-fibrotic effect by the combined treatment of stearic acid and pirfenidone in a pulmonary fibrosis animal model. For this purpose, 8-week-old mice (C57BL/6J) were anesthetized with 50 mg/kg […] and 5 mg/kg Rompun, followed by injection of bleomycin and saline into the trachea. From 7 days after administration of bleomycin, 3 mg/kg stearic acid, 300 mg/kg pirfenidone or the two drugs were orally administered at the same time once every 2 days for 2 weeks, and changes in mouse body weight were measured up to 21 days after administration of bleomycin.
# pulmonary fibroblasts = experiment: Collagen 1 and α-SMA immunoblotting in pulmonary fibroblasts; format: cell-based, human; details: relative to control
# Protocol: After epithelial cells and fibroblasts were aliquoted into 6-well plates at 2×10^4 cells/well and a stabilization time was imparted for 24 hours, and 15 hours after deficiency, cells were treated with stearic acid (40 uM/mL), TGF-β (5 ng/mL), and stearic acid (40 uM/mL)+TGF-β (5 ng/mL) in this order. After the cells were cultured in an incubator for 24 hours after the treatment, the next-step experiment was performed. After 24 hours of cell stimulation by the method of Example 1-3, the cells were washed twice with iced phosphate buffer saline (PBS), a protein lysate solution was put thereinto, the cells were scraped out and collected in a 1.5 ml EP tube, and then the cells were lysed in a grinder for 30 seconds. Next, centrifugation was performed at a speed of 14,000 rpm at 4° C. for 20 minutes, and the protein was quantified using the BCA analysis method. Thereafter, the protein sample was boiled at 95° C. for 10 minutes for the same amount of protein, and then the expression levels of collagen type 1 and α-SMA were measured by immunoblotting. After the expression level of the protein was confirmed, a significance test between samples was performed using a statistical program. […] The collagen 1/actin or α-SMA/actin indicated on the y-axis of FIGS. 4A and 4B means a value obtained by correcting the protein amount of collagen 1 or α-SMA with the amount of actin, which is an intracellular control protein. […] Further, referring to the test method of obtaining the results in FIG. 4, after pulmonary fibroblasts were treated with palmitic acid at various concentrations (10, 20, and 40 μM/mL), the levels of collagen 1 (collagen 1/actin; FIG. 6A) and α-SMA (α-SMA/actin; FIG. 6B), which are intracellular fibrosis markers, were measured, and shown as relative values to the control (CTL; medium only). […] 40 uM/mL stearic acid, 10 uM/mL palmitic acid, and 5 ng/mL TGF-β were used in the experiment, respectively. […] In addition, referring to the test method of obtaining the results in FIG. 7, the experiment was performed using oleic acid (OA) instead of palmitic acid, and the levels of collagen 1 (collagen 1/actin; FIG. 8A) and α-SMA (α-SMA/actin; FIG. 8B) were measured and shown as relative values to the control (CTL; medium only). 40 uM/mL stearic acid, 40 uM/mL oleic acid, and 5 ng/mL TGF-β were used in the experiment, respectively.
# [6] = test system: human pulmonary epithelial cells (BEAS-2B); experiment: Cell viability (MTT) of human pulmonary epithelial cells; format: cell-based; details: palmitic acid 10, 20 and 40 μM/mL alone
# Protocol: (§1) After epithelial cells and fibroblasts were aliquoted into 6-well plates at 2×10^4 cells/well and a stabilization time was imparted for 24 hours, and 15 hours after deficiency, cells were treated with stearic acid (40 uM/mL), TGF-β (5 ng/mL), and stearic acid (40 uM/mL)+TGF-β (5 ng/mL) in this order. After the cells were cultured in an incubator for 24 hours after the treatment, the next-step experiment was performed.
# (§2) After a 24-hour cell stimulation by the method in Example 1-3 was completed, the medium of epithelial cells and fibroblasts was replaced with a general culture medium, 10 μl of an MTT solution (20 mg/ml) was further added, and then the outside of the plate was wrapped with aluminum foil and cells were cultured in an incubator for 2 hours. […] After 2 hours, cell activation was measured at an absorbance value of 595 nm using an ELISA reader.
# (§3) For this purpose, after each culture (BEGM(Lonza) in the case of MRC-5, and BMEM (ATCC) in the case of BEAS-2B) of human pulmonary fibroblasts (MRC-5; ATCC® CCL171™) and human pulmonary epithelial cells (BEAS-2B; ATCC® CRL9609™) was treated with stearic acid (40 uM/mL), TGF-β (5 ng/mL; Sigma), or stearic acid (40 uM/mL)+TGF-β (5 ng/mL) by the method described in Example 1-3 for 24 hours, cell viability was measured by the method in Example 1-4. […]
# [7] = test system: human pulmonary fibroblasts (MRC-5); experiment: Cell viability (MTT) of human pulmonary fibroblasts; format: cell-based; details: palmitic acid 10, 20 and 40 μM/mL alone
# Protocol: as §1, §2, §3
# [8] = 1.5 μM nintedanib single treatment versus TGF single treatment
# [9] = 2 μM nintedanib single treatment versus TGF single treatment
# [10] = palmitic acid 10, 20 and 40 μM/mL alone
smiles,measurement,setting,value
COC(=O)c1ccc2c(c1)NC(=O)/C2=C(\Nc1ccc(N(C)C(=O)CN2CCN(C)CC2)cc1)c1ccccc1 [nintedanib],expression level of COL-1,[1]; [8],no change
same,expression level of α-SMA,[1]; [8],no change
same,expression level of COL-1,[1]; [9],no change
same,expression level of α-SMA,[1]; [9],no change
same,inhibition at 2 µM,"[1]; Homo sapiens, Col1, 2 μM nintedanib, 40 μM stearic acid, COL-1 expression caused by TGF assumed 100%, read-out: inhibitory rate against COL-1",110%
"CC(=O)N[C@@H](CS)C(=O)O [NAC, N-acetylcysteine, reference compound]",expression of p-Smad2/3 induced by TGF-β1,[2],inhibited
Cc1ccc(=O)n(-c2ccccc2)c1 [pirfenidone],"expression of fibronectin, quantitative analysis of inhibitory efficiency",[3],about 120%
same,inhibitory rate of COL-1,[4],157%
same,"hydroxyproline inhibition, quantitative analysis",[5],105%
same,level of hydroxyproline,[5]; versus bleomycin group,partially reduced
same,body weight,[5]; up to day 21 after bleomycin,further reduced
"CCCCCCCCCCCCCCCC(=O)O [palmitic acid, reference compound]",collagen 1/actin,pulmonary fibroblasts; [10],increased at levels similar to that in the case where pulmonary fibroblasts were treated with only TGF-β
same,α-SMA/actin,pulmonary fibroblasts; [10],increased at levels similar to that in the case where pulmonary fibroblasts were treated with only TGF-β
same,cell viability of pulmonary epithelial cells,[6],decreased according to the treatment concentration
same,cell viability of pulmonary fibroblasts,[7],increased according to the concentration
"CCCCCCCC/C=C\CCCCCCCC(=O)O [oleic acid, reference compound]",collagen 1/actin,pulmonary fibroblasts; oleic acid 40 uM/mL alone,activated pulmonary fibrosis at the same level as in TGF-β
same,α-SMA/actin,pulmonary fibroblasts; oleic acid 40 uM/mL alone,activated pulmonary fibrosis at the same level as in TGF-β
